Data as given in the METLIN SMRT retention time set (Domingo-Almenara et al. 2019).

Assay: gradient 5% acetonitrile 3 min, to 50% in 2 min, to 85% in 15 min, held 3 min, 100 µL/min
Conditions: column: Zorbax Extend-C18 2.1 x 50 mm; eluents: water / acetonitrile, 0.1% formic acid
Procedure, shortened: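 Retention time was recorded from adduct peaks, which were picked computationally and each inspected manually. Pure standards ran in mixtures of ~100 molecules on HPLC coupled to a quadrupole time-of-flight mass spectrometer, in positive and negative ionization mode, through a Zorbax Extend-C18 column (2.1 × 50 mm, 1.8 μm) at 100 μL/min. Eluents were water and acetonitrile, each with 0.1% formic acid.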

In order of falling RP-LC retention time:
1. Cn1cc2c3c(cccc31)CN(C(=O)Cc1ccc(Cl)cc1)CC2  986 s
2. Cc1cc(C)cc(OCc2nc(CCN(C)C(=O)NCc3ccccc3)no2)c1  980 s
3. COc1cc(-c2ccc(SCC(=O)c3ccc(C)cc3)nn2)cc(OC)c1OC  949 s
4. Cc1ccc(-c2nc(N3CCSCC3)ncc2C(=O)O)cc1  918 s
5. COc1ccccc1OCCC1CCN(S(=O)(=O)c2ccc3c(c2)C(C)(C)C(=O)N3)C1 (stereo unspecified)  902 s
6. Cc1ccc(CNC(=O)C2(C)CCCN(C(=O)Nc3ccc(F)cc3)C2)cc1 (stereo unspecified)  899 s
7. Cc1ccc(-c2nc3nc(C)cc(NCc4ccc5c(c4)OCO5)n3n2)cc1  892 s
8. O=C(CSc1ccc(F)cc1)Nc1ccc2c(c1)N(C(=O)c1ccccc1)CCC2  874 s
9. COc1ccc(F)cc1S(=O)(=O)N1CCC(OCc2noc(C3CCCO3)n2)CC1 (stereo unspecified)  870 s
10. Cc1ccc(CN2C(=O)C3(CCOCC3)CC2c2nnnn2C(C)(C)C)cc1C (stereo unspecified)  862 s
11. O=C(NC(c1ccccc1)c1nnc(N2CCCC2)o1)c1ccc(Cl)cc1 (stereo unspecified)  860 s
12. CCOc1ccccc1NC(=O)N1CCCC1c1cc(C)no1 (stereo unspecified)  854 s
13. Cc1cccc(NC(=O)N2CCC(N3CCN(Cc4ccccc4)C3=O)CC2)c1  853 s
14. CCCn1c(=O)sc2cc(S(=O)(=O)N3CCC(C(=O)Nc4cc(C)ccn4)CC3)ccc21  844 s
15. O=C(NCC1CCCCC1)C1CCCN(c2nnc3ccc(Cl)cn23)C1 (stereo unspecified)  839 s
16. Cc1ccc(CNC(=O)c2sc(-c3cn(C)c4ncccc34)nc2C)cc1  784 s
17. O=C(NCC1CCCO1)c1cnn2c(-c3ccc4c(c3)OCO4)ccnc12 (stereo unspecified)  780 s
18. COc1ccc2[nH]cc(CCN3CC(C(=O)Nc4cccc(C)c4C)CC3=O)c2c1 (stereo unspecified)  771 s
19. N#Cc1cnc2ccc(F)cc2c1N1CCC(C(=O)N2CCSCC2)CC1  766 s
20. CN(C)CCOc1ccccc1Cc1ccccc1  762 s
21. COc1ccccc1CCC(=O)NCc1cccnc1OC  749 s
22. Cn1c(CCCC(=O)O)nc2cc(N(CCCl)CCCl)ccc21  747 s
23. COc1cc(OC)cc(C(=O)N2CCC3(CC2)NC(=O)c2ccc(Cl)cc2N3)c1  742 s
24. COc1ccc(-c2cc(N3CCN(C(=O)COc4ccc(Cl)cc4)CC3)ncn2)cc1  738 s
25. CN(C)C(=O)c1ccc2c(c1)CCN2C(=O)C1CCCC1  720 s
26. Cc1cc(C)c(S(=O)(=O)Nc2ccc(-c3cn4ccccc4n3)cc2)cc1C  719 s
27. O=C(NCC1OCCc2ccccc21)C(=O)N1CCCCC1 (stereo unspecified)  716 s
28. Cc1[nH]c2ccccc2c1C(=O)C(=O)NC1CC(=O)N(c2ccccc2)C1 (stereo unspecified)  711 s
29. Cc1cccc(-c2ncccc2CNS(=O)(=O)Cc2ccccc2F)c1  705 s
30. CCOc1ccccc1NC(=O)C1CN(S(C)(=O)=O)CC12CCCCC2 (stereo unspecified)  682 s
31. Cc1ccccc1NS(=O)(=O)c1cc2n(c1)CCCN(C)C2=O  666 s
32. CCS(=O)(=O)NCC1CCN(C(=O)COc2ccccc2)CC1  659 s
33. C=CCN(Cc1nc(-c2ccc(C)cc2)no1)C(=O)Nc1ccccc1C  650 s
34. O=C(NCCN1CCOCC1)c1nnc(-c2ccc(S(=O)(=O)N3CCCCC3)cc2)o1  647 s
35. CC(=O)N1c2ccc(S(=O)(=O)N3CCCCC3)cc2CC1C(=O)N1CCN(c2ccccn2)CC1 (stereo unspecified)  645 s
36. O=C(NC1CCCCC1)c1ccc2ncnc(N3CCCC3)c2c1  636 s
37. Cc1ccnc(NS(=O)(=O)c2ccc(NC(=O)c3ccc4ncsc4c3)cc2)n1  626 s
38. O=C(c1cn(-c2cc(N3CCSCC3)ncn2)cn1)N1CCN(c2ccccn2)CC1  624 s
39. CCC(CO)NCc1ccc(-c2ccccc2)o1 (stereo unspecified)  624 s
40. CCc1nnc(C2CN(C)CC23CCN(S(=O)(=O)c2cc(F)ccc2OC)CC3)o1 (stereo unspecified)  612 s
41. COc1ccc(C2(C(=O)N3CCCC(CN4CCOCC4)CC3)CC2)cc1 (stereo unspecified)  596 s
42. COC(=O)c1cc(S(=O)(=O)N2CCCC2C(=O)NCc2ccccn2)cn1C (stereo unspecified)  590 s
43. Cc1nccn1-c1cc(N2CCC3(CC2)OCCO3)nc2ccnn12  577 s
44. COCCCNC(=O)C1CCC(=O)N(c2cc(OC)c(OC)c(OC)c2)C1c1ccc(OC)cc1 (stereo unspecified)  572 s
45. Cc1cnc(C2CC2)n1CCNS(=O)(=O)c1ccccc1C(F)(F)F  569 s
46. CNC(=O)[C@@H]1CN(C(=O)Cc2ccsc2)C[C@H]1c1n[nH]c(C)n1  565 s
